Assay results taken from the supplement of paper PMC10307832.

Assays:
Assay in all cases: relative viability (nuclei count vs DMSO), 5 days (fraction); higher = more cells survive
Everolimus + Luminespib = compound: CO[C@H]1C[C@@H]2CC[C@@H](C)[C@@](O)(O2)C(=O)C(=O)N2CCCC[C@H]2C(=O)O[C@H]([C@H](C)C[C@@H]2CC[C@@H](OCCO)[C@H](OC)C2)CC(=O)[C@H](C)/C=C(\C)[C@@H](O)[C@@H](OC)C(=O)[C@H](C)C[C@H](C)/C=C/C=C/C=C/1C [Everolimus] + CCNC(=O)c1noc(-c2cc(C(C)C)c(O)cc2O)c1-c1ccc(CN2CCOCC2)cc1 [Luminespib] (partner 0.01 µM)
How it was run: (§1)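 The day after seeding in 1536-well plates, lung cancer cell lines were treated by pin tool with a single drug, or with a fixed anchor-drug dose together with five library-drug doses (not always all listed) in √10 steps. After 5 days, a combined fix-and-stain solution (final 0.05% Triton X-100, 1% formaldehyde, 1 ug/ml Hoechst) was added. Nuclei counted on 4× images gave relative viability as treated counts over vehicle counts, reported as the median of duplicate plates.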

Everolimus + Foretinib = compound: CO[C@H]1C[C@@H]2CC[C@@H](C)[C@@](O)(O2)C(=O)C(=O)N2CCCC[C@H]2C(=O)O[C@H]([C@H](C)C[C@@H]2CC[C@@H](OCCO)[C@H](OC)C2)CC(=O)[C@H](C)/C=C(\C)[C@@H](O)[C@@H](OC)C(=O)[C@H](C)C[C@H](C)/C=C/C=C/C=C/1C [Everolimus] + COc1cc2c(Oc3ccc(NC(=O)C4(C(=O)Nc5ccc(F)cc5)CC4)cc3F)ccnc2cc1OCCCN1CCOCC1 [Foretinib] (partner 0.25 µM)
How it was run: as §1

Everolimus + Tozasertib = compound: CO[C@H]1C[C@@H]2CC[C@@H](C)[C@@](O)(O2)C(=O)C(=O)N2CCCC[C@H]2C(=O)O[C@H]([C@H](C)C[C@@H]2CC[C@@H](OCCO)[C@H](OC)C2)CC(=O)[C@H](C)/C=C(\C)[C@@H](O)[C@@H](OC)C(=O)[C@H](C)C[C@H](C)/C=C/C=C/C=C/1C [Everolimus] + Cc1cc(Nc2cc(N3CCN(C)CC3)nc(Sc3ccc(NC(=O)C4CC4)cc3)n2)n[nH]1 [Tozasertib] (partner 0.1 µM)
How it was run: as §1

Everolimus + AZD7762 = compound: CO[C@H]1C[C@@H]2CC[C@@H](C)[C@@](O)(O2)C(=O)C(=O)N2CCCC[C@H]2C(=O)O[C@H]([C@H](C)C[C@@H]2CC[C@@H](OCCO)[C@H](OC)C2)CC(=O)[C@H](C)/C=C(\C)[C@@H](O)[C@@H](OC)C(=O)[C@H](C)C[C@H](C)/C=C/C=C/C=C/1C [Everolimus] + NC(=O)Nc1cc(-c2cccc(F)c2)sc1C(=O)N[C@H]1CCCNC1 [AZD7762] (partner 0.2 µM)
How it was run: as §1

Cell Line	relative viability (Everolimus + Luminespib; first compound 0.01 µM)	relative viability (Everolimus + Luminespib; first compound 0.03162 µM)	relative viability (Everolimus + Luminespib; first compound 0.3162 µM)	relative viability (Everolimus + Luminespib; first compound 1 µM)	relative viability (Everolimus + Foretinib; first compound 0.01 µM)	relative viability (Everolimus + Foretinib; first compound 0.03162 µM)	relative viability (Everolimus + Foretinib; first compound 0.1 µM)	relative viability (Everolimus + Foretinib; first compound 0.3162 µM)	relative viability (Everolimus + Foretinib; first compound 1 µM)	relative viability (Everolimus + Tozasertib; first compound 0.01 µM)	relative viability (Everolimus + Tozasertib; first compound 0.03162 µM)	relative viability (Everolimus + Tozasertib; first compound 0.1 µM)	relative viability (Everolimus + Tozasertib; first compound 0.3162 µM)	relative viability (Everolimus + Tozasertib; first compound 1 µM)	relative viability (Everolimus + AZD7762; first compound 0.01 µM)	relative viability (Everolimus + AZD7762; first compound 0.03162 µM)	relative viability (Everolimus + AZD7762; first compound 0.1 µM)	relative viability (Everolimus + AZD7762; first compound 0.3162 µM)	relative viability (Everolimus + AZD7762; first compound 1 µM)	relative viability (Everolimus + Luminespib; first compound 0.1 µM)
NCI-H727	0.47	0.372	0.345	0.365	0.67	0.569	0.611	0.603	0.425	0.525	0.562	0.505	0.713	0.53	0.482	0.483	0.454	0.565	0.523	–
NCI-H838	0.206	0.153	0.172	0.266	0.586	0.629	0.518	0.551	0.56	0.266	0.258	0.27	0.237	0.245	0.767	0.777	0.75	0.831	0.763	0.198
NCI-H1355	0.302	0.33	0.258	0.265	0.606	0.548	0.477	0.421	0.482	0.497	0.398	0.355	0.413	0.32	0.552	0.468	0.456	0.471	0.376	0.268
NCI-H1395	0.581	0.522	0.449	0.537	0.901	0.683	0.727	0.617	0.627	0.56	0.56	0.493	0.523	0.507	0.394	0.374	0.335	0.405	0.339	0.532
NCI-H1437	1.12	1.11	1.06	0.948	1.29	1.18	1.21	1.23	1.15	0.421	0.51	0.411	0.403	0.361	1.1	1.11	1.1	0.997	0.875	1.08
NCI-H1651	0.589	0.531	0.575	0.567	0.523	0.556	0.562	0.431	0.558	0.616	0.542	0.383	0.485	0.366	0.197	0.218	0.224	0.208	0.231	0.612
NCI-H1666	0.898	0.964	0.98	0.929	0.885	0.925	0.972	0.926	0.875	0.571	0.625	0.559	0.668	0.527	0.855	0.84	0.821	0.899	0.908	0.909
NCI-H1734	0.176	0.211	0.184	0.208	0.495	0.529	0.479	0.467	0.541	0.263	0.234	0.223	0.235	0.248	0.336	0.365	0.291	0.283	0.313	0.185
NCI-H1755	0.372	0.312	0.347	0.244	0.791	0.751	0.653	0.822	0.632	0.594	0.488	0.538	0.525	0.425	0.379	0.39	0.382	0.344	0.345	0.347
NCI-H1793	0.151	0.149	0.152	0.113	0.293	0.314	0.259	0.293	0.291	0.253	0.197	0.234	0.203	0.188	0.242	0.244	0.259	0.21	0.197	0.139
NCI-H1915	0.722	0.714	0.532	0.579	1.04	0.975	0.838	0.972	0.79	0.514	0.46	0.42	0.432	0.418	0.632	0.567	0.561	0.587	0.554	0.478
NCI-H1944	0.436	0.447	0.429	0.345	0.572	0.583	0.608	0.629	0.658	0.215	0.236	0.205	0.224	0.185	0.341	0.437	0.354	0.325	0.306	0.374
NCI-H1975	0.158	0.169	0.191	0.287	0.765	0.67	0.714	0.748	0.579	0.658	0.62	0.528	0.64	0.466	0.591	0.571	0.533	0.433	0.531	0.194
NCI-H1993	0.528	0.459	0.456	0.58	0.554	0.592	0.667	0.628	0.627	0.482	0.508	0.573	0.521	0.485	0.461	0.505	0.371	0.472	0.439	0.366
